Assay results as given in patent US20230087118A1, “IMIDAZO[1,2-a][sequence] DERIVATIVES AND THEIR USE IN THE TREATMENT OF DISEASE” (priority 2019, published 2023).
Counter-ions that a name gives are not always drawn.

Biological target: T1, IRAK4 (Homo sapiens, UniProt Q9NWZ3)
T1 sequence (Q9NWZ3 1-460): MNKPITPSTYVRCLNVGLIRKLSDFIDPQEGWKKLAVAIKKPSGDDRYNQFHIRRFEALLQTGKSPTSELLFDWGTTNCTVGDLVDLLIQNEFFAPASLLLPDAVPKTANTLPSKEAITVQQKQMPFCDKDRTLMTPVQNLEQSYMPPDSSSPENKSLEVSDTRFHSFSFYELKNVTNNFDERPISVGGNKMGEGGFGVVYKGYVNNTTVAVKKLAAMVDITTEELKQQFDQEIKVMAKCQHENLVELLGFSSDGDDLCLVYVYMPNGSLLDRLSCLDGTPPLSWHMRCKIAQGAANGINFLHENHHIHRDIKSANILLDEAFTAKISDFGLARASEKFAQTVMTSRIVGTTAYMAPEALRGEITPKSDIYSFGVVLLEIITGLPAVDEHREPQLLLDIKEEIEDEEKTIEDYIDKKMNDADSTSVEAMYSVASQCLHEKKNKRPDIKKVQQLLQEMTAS
Test: biochemical
Settings: not given

First: CC(C)Oc1nc2nc(C34COC(C)(C3)C4)cn2cc1C(=O)Nc1cccc(OC(F)(F)F)n1 [Example 412, 7-Isopropoxy-2-(1-methyl-2-oxabicyclo[2.1.1]hexan-4-yl)-N-(6-(trifluoromethoxy)pyridin-2-yl)imidazo[1,2-a]pyrimidine-6-carboxamide]
Second: CC(C)Oc1nc2nc(C34COC(C)(C3)C4)cn2cc1C(=O)Nc1cccc(-c2cnco2)n1 [Example 368, 7-Isopropoxy-2-(1-methyl-2-oxabicyclo[2.1.1]hexan-4-yl)-N-(6-(oxazol-5-yl)pyridin-2-yl)imidazo[1,2-a]pyrimidine-6-carboxamide]
The IC50 of the first is 6-fold higher: 0.0012 µM for the first, 0.0002 µM for the second. The second is the more potent here.

First: CC(C)Oc1cc2nc([C@]34CC[C@H](C3)OC4)cn2cc1C(=O)Nc1cnn2cccnc12 (single isomer, unassigned) [Example 583]
Second: CC(C)Oc1cc2nc([C@]34CC[C@](C)(C3)OC4)cn2cc1C(=O)Nc1cnn2cccnc12 (single isomer, unassigned) [Example 614]
The IC50 of the first is 4-fold higher: 0.0008 µM for the first, 0.0002 µM for the second. The second is the more potent here.

Compared with `CC(C)Oc1nc2nc(C34COC(C)(C3)C4)cn2cc1C(=O)Nc1cnn2cc(C(F)F)cnc12` [Example 369, N-(6-(difluoromethyl)pyrazolo[1,5-a]pyrimidin-3-yl)-7-isopropoxy-2-(1-methyl-2-oxabicyclo[2.1.1]hexan-4-yl)imidazo[1,2-a]pyrimidine-6-carboxamide], `CC(C)Oc1nc2nc([C@]34CC[C@](C)(C3)OC4)cn2cc1C(=O)Nc1cnn2cc(F)cnc12` (single isomer, unassigned) [Example 631] is 2-fold lower in IC50: 0.0008 µM for the first, 0.0004 µM for the second. The second is the more potent here.

First: CC1(C)CC(Oc2cc3nc(C4CC4)cn3cc2C(=O)Nc2cccn(C(F)F)c2=O)C1 [Example 460, 2-Cyclopropyl-N-(1-(difluoromethyl)-2-oxo-1,2-dihydropyridin-3-yl)-7-(3,3-dimethylcyclobutoxy)imidazo[1,2-a]pyridine-6-carboxamide]
Second: COc1cc2nc(C3CCOCC3)cn2cc1C(=O)Nc1cccn(C(C)C)c1=O [Example 192]
The IC50 of the first is 4.3-fold lower: 0.0099 µM for the first, 0.0429 µM for the second.

Compared with `CCOc1nc(C(=O)Nc2cc(F)cn(C)c2=O)cn2cc([C@H]3CCCOC3)nc12` (single isomer, unassigned) [Example 597], `CCOc1cc(C(=O)Nc2cccc(C(F)F)n2)cn2cc(C3CCCOC3)nc12` (stereo not drawn) [Example 52, N-(6-(difluoromethyl)pyridin-2-yl)-8-ethoxy-2-(tetrahydro-2H-pyran-3-yl)imidazo[1,2-a]pyridine-6-carboxamide] is 1.9-fold lower in IC50: 0.014 µM for the first, 0.0075 µM for the second. The second is the more potent here.

Going from `Cc1cc(-n2ccc(NC(=O)c3cn4cc(C56COC(C)(C5)C6)nc4cc3OC3CCC3)n2)ccn1` [Example 522, 7-Cyclobutoxy-2-(1-methyl-2-oxabicyclo[2.1.1]hexan-4-yl)-N-(1-(2-methylpyridin-4-yl)-1H-pyrazol-3-yl)imidazo[1,2-a]pyridine-6-carboxamide] to `CC12CC(c3cn4cc(C(=O)Nc5ccn(C(F)F)n5)c(OC5CCC5)cc4n3)(CO1)C2` [Example 523, 7-Cyclobutoxy-N-(1-(difluoromethyl)-1H-pyrazol-3-yl)-2-(1-methyl-2-oxabicyclo[2.1.1]hexan-4-yl)imidazo[1,2-a]pyridine-6-carboxamide], the IC50 rises from 0.0005 µM to 0.0023 µM (4.6-fold).

Going from `COCc1nc2nc(C34COC(C)(C3)C4)cn2cc1C(=O)Nc1cnn2cc(C)cnc12` [Example 352, 7-(Methoxymethyl)-2-(1-methyl-2-oxabicyclo[2.1.1]hexan-4-yl)-N-(6-methylpyrazolo[1,5-a]pyrimidin-3-yl)imidazo[1,2-a]pyrimidine-6-carboxamide] to `Cc1cnc2c(NC(=O)c3cn4cc(C56COC(C)(C5)C6)nc4cc3O[C@@H](C)C3CC3)cnn2c1` (single isomer, unassigned) [Example 658], the IC50 falls from 6.53 µM to 0.0006 µM (11000-fold).

Going from `CC(Oc1cc2nc(C34COC(C)(C3)C4)cn2cc1C(=O)Nc1cccc(C(F)F)n1)C(F)(F)F` (single isomer, unassigned) [Example 619] to `CC(C)Oc1cc2nc(C34CC(C#N)(C3)C4)cn2cc1C(=O)Nc1cccc(C(F)F)n1` [Example 402, 2-(3-Cyanobicyclo[1.1.1]pentan-1-yl)-N-(6-(difluoromethyl)pyridin-2-yl)-7-isopropoxyimidazo[1,2-a]pyridine-6-carboxamide], the IC50 rises from 0.0001 µM to 0.0002 µM (2-fold). The first is the more potent here.

Compared with `COc1cccc(NC(=O)c2cn3cc(C4CC4)nc3cc2OC2CCC2)n1` [Example 463, 7-Cyclobutoxy-2-cyclopropyl-N-(6-methoxypyridin-2-yl)imidazo[1,2-a]pyridine-6-carboxamide], `O=C(Nc1cccc(C(F)F)n1)c1cn2cc(C3CC3)nc2cc1OC1CCC1` [Example 474, 7-Cyclobutoxy-2-cyclopropyl-N-(6-(difluoromethyl)pyridin-2-yl)imidazo[1,2-a]pyridine-6-carboxamide] is 8.1-fold lower in IC50: 0.0057 µM for the first, 0.0007 µM for the second. The second is the more potent here.

First: CCCOc1nc(C(=O)Nc2cccnc2OC)cn2cc(C34COC(C)(C3)C4)nc12 [Example 342, N-(2-methoxypyridin-3-yl)-2-(1-methyl-2-oxabicyclo[2.1.1]hexan-4-yl)-8-propoxyimidazo[1,2-a]pyrazine-6-carboxamide]
Second: COc1cccc(NC(=O)c2cn3cc(C45COC(C)(C4)C5)nc3cc2OC)n1 [Example 31]
The IC50 of the first is 15-fold lower: 0.001 µM for the first, 0.015 µM for the second.

First: CC(C)Oc1nc(C(=O)Nc2ccn(C)n2)cn2cc(C34CCC(C)(CC3)OC4)nc12 [Example 429, 8-Isopropoxy-N-(1-methyl-1H-pyrazol-3-yl)-2-(1-methyl-2-oxabicyclo[2.2.2]octan-4-yl)imidazo[1,2-a]pyrazine-6-carboxamide]
Second: CC(C)Oc1cc2nc(C34COC(C3)C4)cn2cc1C(=O)Nc1ccn(C)n1 [Example 546, 2-(2-Oxabicyclo[2.1.1]hexan-4-yl)-7-isopropoxy-N-(1-methyl-1H-pyrazol-3-yl)imidazo[1,2-a]pyridine-6-carboxamide]
The IC50 of the first is 4.8-fold lower: 0.0018 µM for the first, 0.0086 µM for the second. The first is the more potent here.

Compared with `CC(C)Oc1cc2nc(C34COC(C)(C3)C4)c(F)n2cc1C(=O)Nc1cccn(C(F)F)c1=O` [Example 326, N-(1-(difluoromethyl)-2-oxo-1,2-dihydropyridin-3-yl)-3-fluoro-7-isopropoxy-2-(1-methyl-2-oxabicyclo[2.1.1]hexan-4-yl)imidazo[1,2-a]pyridine-6-carboxamide], `CC(C)Oc1nc2nc(C34COC(C)(C3)C4)cn2cc1C(=O)Nc1cccc2ncnn12` [Example 410, N-([1,2,4]triazolo[1,5-a]pyridin-5-yl)-7-isopropoxy-2-(1-methyl-2-oxabicyclo[2.1.1]hexan-4-yl)imidazo[1,2-a]pyrimidine-6-carboxamide] is 9.5-fold lower in IC50: 0.0019 µM for the first, 0.0002 µM for the second.

Compared with `CCc1ncsc1NC(=O)c1cn2cc(C3CCOCC3)nc2cc1OC` [Example 104], `COc1cc2nc(C3CCOCC3)cn2cc1C(=O)Nc1cscc1Cl` [Example 111] is 2.4-fold lower in IC50: 0.0476 µM for the first, 0.0198 µM for the second.

Compared with `CCOc1cc2nc(C(F)F)cn2cc1C(=O)Nc1cccc(C(F)F)n1` [Example 95, 2-(Difluoromethyl)-N-(6-(difluoromethyl)pyridin-2-yl)-7-ethoxyimidazo[1,2-a]pyridine-6-carboxamide], `CC(C)Oc1cc2nc(C3CC3)cn2cc1C(=O)Nc1cccc(OCC(F)F)n1` [Example 482, 2-Cyclopropyl-N-(6-(2,2-difluoroethoxy)pyridin-2-yl)-7-isopropoxyimidazo[1,2-a]pyridine-6-carboxamide] is 13-fold higher in IC50: 0.0005 µM for the first, 0.0067 µM for the second.

Work on `O=C(Nc1cccc(C(F)F)n1)c1cn2cc(C3CCOCC3)nc2cn1` [Example 83] yielded an IC50 of 0.264 µM.

Same assay, conditions: IRAK4 Biochemical Assay (1 mM ATP, 2 h) IC50 (μM), 1 mM ATP, 2 h, 100 pM IRAK4

Going from `CCOc1nc(C(=O)Nc2cccc3ccnn23)cn2cc(C34CCC(C)(C3)OC4)nc12` (stereo not drawn) [Example 278, 8-Ethoxy-2-(1-methyl-2-oxabicyclo[2.2.1]heptan-4-yl)-N-(pyrazolo[1,5-a]pyridin-7-yl)imidazo[1,2-a]pyrazine-6-carboxamide trifluoroacetate] to `COc1cccc(NC(=O)c2cn3cc(C45CCC(C)(C4)OC5)nc3cc2OC)n1` (stereo not drawn) [Example 27], the IC50 rises from 0.0011 µM to 0.0198 µM (18-fold). The first is the more potent here.

Compared with `CC(C)Oc1cc2nc(C34COC(C)(C3)C4)c(F)n2cc1C(=O)Nc1cccc(C(F)F)n1` [Example 324, N-(6-(difluoromethyl)pyridin-2-yl)-3-fluoro-7-isopropoxy-2-(1-methyl-2-oxabicyclo[2.1.1]hexan-4-yl)imidazo[1,2-a]pyridine-6-carboxamide trifluoroacetate], `CC(C)Oc1cc2nc(C34COC(C)(C3)C4)cn2cc1C(=O)Nc1cccc(C(F)F)n1` [Example 96, N-(6-(difluoromethyl)pyridin-2-yl)-7-isopropoxy-2-(1-methyl-2-oxabicyclo[2.1.1]hexan-4-yl)imidazo[1,2-a]pyridine-6-carboxamide] is 10-fold lower in IC50: 0.002 µM for the first, 0.0002 µM for the second.

`CC(C)Oc1cc2nc(C34COC(C)(C3)C4)cn2cc1C(=O)Nc1nccc(C(F)F)n1` [Example 295, N-(4-(difluoromethyl)pyrimidin-2-yl)-7-isopropoxy-2-(1-methyl-2-oxabicyclo[2.1.1]hexan-4-yl)imidazo[1,2-a]pyridine-6-carboxamide trifluoroacetate] and `COc1cccc(NC(=O)c2cn3cc(C45COC(C)(C4)C5)nc3c(F)c2OC(C)C)n1` [Example 548, 8-Fluoro-7-isopropoxy-N-(6-methoxypyridin-2-yl)-2-(1-methyl-2-oxabicyclo[2.1.1]hexan-4-yl)imidazo[1,2-a]pyridine-6-carboxamide trifluoroacetate] are within 1.5-fold of each other in IC50: 0.0097 µM for the first, 0.0082 µM for the second.

`CC(C)Oc1cc2nc(C3C4COCC43)cn2cc1C(=O)Nc1cccc(C(F)F)n1` (stereo not drawn) [Example 253, 2-(3-Oxabicyclo[3.1.0]hexan-6-yl)-N-(6-(difluoromethyl)pyridin-2-yl)-7-isopropoxyimidazo[1,2-a]pyridine-6-carboxamide hydrochloride] gave an IC50 of 0.0004 µM.
